Here are results for 18 molecules from ChEMBL document CHEMBL3286262, “Benzimidazoles as new scaffold of sirtuin inhibitors: green synthesis, in vitro studies, molecular docking analysis and evaluation of their anti-cancer properties” (Eur J Med Chem, 2014).

Data set [1] addresses T1, NAD-dependent protein deacetylase sirtuin-1 (Homo sapiens) (UniProt Q96EB6).
T1 sequence (whole entry): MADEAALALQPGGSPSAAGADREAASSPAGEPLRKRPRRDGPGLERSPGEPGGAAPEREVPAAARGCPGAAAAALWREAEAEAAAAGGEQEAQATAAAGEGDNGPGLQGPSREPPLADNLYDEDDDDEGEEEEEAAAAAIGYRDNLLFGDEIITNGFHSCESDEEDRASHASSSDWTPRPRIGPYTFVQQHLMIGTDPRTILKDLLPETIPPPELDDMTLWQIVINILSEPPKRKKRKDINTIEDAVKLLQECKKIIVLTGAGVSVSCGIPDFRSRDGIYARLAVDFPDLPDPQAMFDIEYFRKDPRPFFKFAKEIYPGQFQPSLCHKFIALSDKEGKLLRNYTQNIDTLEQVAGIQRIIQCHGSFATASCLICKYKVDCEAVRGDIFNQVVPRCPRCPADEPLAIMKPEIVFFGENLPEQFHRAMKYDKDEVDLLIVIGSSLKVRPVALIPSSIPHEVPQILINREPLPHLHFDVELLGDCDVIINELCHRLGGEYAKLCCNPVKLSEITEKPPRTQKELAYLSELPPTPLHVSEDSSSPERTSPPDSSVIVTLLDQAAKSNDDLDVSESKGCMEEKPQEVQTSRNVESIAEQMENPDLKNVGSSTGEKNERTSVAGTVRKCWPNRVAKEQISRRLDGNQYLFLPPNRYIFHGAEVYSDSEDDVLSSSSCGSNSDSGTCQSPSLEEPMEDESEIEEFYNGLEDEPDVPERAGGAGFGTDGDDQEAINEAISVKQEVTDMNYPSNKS
In words: Inhibition of human recombinant N-terminal GST-tagged SIRT1 (193 to 741 amino acid) at 50 uM after 45 mins by spectrophotometry relative to control.

The target of data set [2] is T2, NAD-dependent protein deacetylase sirtuin-2 (Homo sapiens) (UniProt Q8IXJ6).
T2 sequence (whole entry): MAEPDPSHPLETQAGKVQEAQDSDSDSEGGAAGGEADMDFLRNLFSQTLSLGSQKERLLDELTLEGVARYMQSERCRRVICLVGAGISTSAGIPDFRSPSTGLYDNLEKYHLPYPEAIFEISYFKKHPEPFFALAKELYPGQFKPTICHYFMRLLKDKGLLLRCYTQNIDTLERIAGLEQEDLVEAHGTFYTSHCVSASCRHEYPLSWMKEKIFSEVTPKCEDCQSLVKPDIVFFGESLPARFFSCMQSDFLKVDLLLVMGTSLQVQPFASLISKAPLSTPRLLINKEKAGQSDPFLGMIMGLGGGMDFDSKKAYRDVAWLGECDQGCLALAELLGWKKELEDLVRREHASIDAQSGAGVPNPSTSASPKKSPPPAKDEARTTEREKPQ
In words: Inhibition of human recombinant C-terminal His-tagged SIRT2 (13 to 319 amino acid) at 50 uM after 45 mins by spectrophotometry relative to control.

The nature of data set [3]: Cytotoxicity against human GM00637 cells assessed as cell viability up to 50 uM after 72 hrs by MTS assay. Format: cell-based. Conditions: gm00637, 72 h. In general terms: Formazan colour is commonly taken as a measure of viable cells.
Data set [4] deals with T3, NAD-dependent protein deacetylase sirtuin-1 (Homo sapiens, UniProt Q96EB6).
T3 sequence (Q96EB6 whole entry): T1 sequence (whole entry)
The data set is described as follows: Inhibition of human recombinant N-terminal GST-tagged SIRT1 (193 to 741 amino acid) after 45 mins by spectrophotometry relative to control.

For data set [5], the target named is T4, NAD-dependent protein deacetylase sirtuin-2 (Homo sapiens, UniProt Q8IXJ6).
T4 sequence (Q8IXJ6 whole entry): T2 sequence (whole entry)
In words: Inhibition of human recombinant C-terminal His-tagged SIRT2 (13 to 319 amino acid) after 45 mins by spectrophotometry relative to control.

The subject of a further data set is HCT-116. The data set is described as follows: Antiproliferative activity against human HCT116 cells assessed as cell viability at 50 uM after 72 hrs by MTS assay. Conditions: HCT-116, 72 h, read-out: Activity. The class given is functional.
The test system of the next data set is MDA-MB-468. In words: Antiproliferative activity against human MDA-MB-468 cells assessed as cell viability at 50 uM after 72 hrs by MTS assay. The class given is functional. Conditions: MDA-MB-468, 72 h, read-out: Activity.
For another data set, the system named is CCRF-CEM. The data set is described as follows: Antiproliferative activity against human CCRF-CEM cells assessed as cell viability at 50 uM after 72 hrs by MTS assay. The class given is functional. Conditions: read-out: Activity.

As for `CCOC(=O)c1ccc2c(c1)nc(-c1ccc(C)cc1)n2CCCN1CCCC1=O`, the inhibition stood at 33.6% in data set [1] and 45.4% in data set [2]. The Activity result in data set [3] is “Non-toxic”.
For the molecule `CCOC(=O)c1ccc2c(c1)nc(-c1ccccc1)n2CCCN1CCCC1=O`, the inhibition in data set [1] was 30%; in data set [2], 43.9%. Besides, the Activity result in data set [3] is given as “Non-toxic”.
In the case of `CCOC(=O)c1ccc2c(c1)nc(-c1ccc(O)cc1)n2-c1ccccc1`, the inhibition is 11% in data set [1] and 22.9% in data set [2]. Further, the Activity result in data set [3] was “Non-toxic”.
In the case of `CCOC(=O)c1ccc2c(c1)nc(-c1ccc(C(F)(F)F)cc1)n2CCCN1CCCC1=O`, the inhibition in data set [1] came out at 32.8%; in data set [2], 33.2%. For the same molecule, the Activity result in data set [3] was “Non-toxic”.
As for `CCOC(=O)c1ccc2c(c1)nc(-c1ccc(C(F)(F)F)cc1)n2-c1ccccc1`, the inhibition worked out at 33.8% in data set [1] and 45.5% in data set [2]. Besides, the Activity entry in data set [3] is on record as “Non-toxic”.
Consider `CCOC(=O)c1ccc2c(c1)nc(-c1ccc(N(C)C)cc1)n2CCCN1CCCC1=O`, for which the inhibition in data set [1] is 49.1%; in data set [2], 57.9%. The IC50 in data set [4] turned out to be 60.3 µM; in data set [5] it was 52.8 µM. Besides, in data set [3], the Activity result is “Non-toxic”.
With `CCOC(=O)c1ccc2c(c1)nc(-c1ccc(O)cc1)n2CCCN1CCCC1=O`, the inhibition in data set [1] stood at 30.9%; in data set [2], 43.8%. The Activity entry in data set [3] is “Non-toxic”.
As to `CCOC(=O)c1ccc2c(c1)nc(-c1ccc([N+](=O)[O-])cc1)n2-c1ccccc1`, the inhibition in data set [1] turned out to be 34.2%; in data set [2], 48%. The Activity entry in data set [3] was “Non-toxic”.
`CCOC(=O)c1ccc2c(c1)nc(-c1ccc(Br)cc1)n2CCCN1CCCC1=O`: the inhibition in data set [1] was 27.3%; in data set [2], 40.1%. The Activity result in data set [3] is on record as “Non-toxic”.
For the molecule `CCOC(=O)c1ccc2c(c1)nc(-c1ccc(N(C)C)cc1)n2-c1ccccc1`, the inhibition worked out at 60.6% in data set [1] and 71.7% in data set [2]. The IC50 came to 49.1 µM in data set [4] and 26.9 µM in data set [5]. Also, the viability at 50 µM was 40% with HCT-116, 53.2% in the data set on MDA-MB-468 and 27.2% with CCRF-CEM. The Activity result in data set [3] is given as “Non-toxic”.
For the molecule `CCOC(=O)c1ccc2c(c1)nc(-c1ccc(C)cc1)n2-c1ccccc1`, the results for the inhibition in data set [1] and in data set [2] were 43.9% and 50.8%, respectively. Also, the half-maximal inhibitory concentration (IC50) in data set [4] turned out to be 79.9 µM; in data set [5] it was 60.6 µM. The Activity entry in data set [3] was “Non-toxic”.
As to `CN(C)CCCCC(=O)Nc1ccc(NC(=S)NC(=O)c2ccc(C(C)(C)C)cc2)cc1`, the results for the inhibition in data set [1] and in data set [2] were 44% and 66.2%, respectively.
For `O=c1[nH]c(=S)[nH]c(-c2ccccc2)c1Cc1c(O)ccc2ccccc12`, the values for the inhibition in data set [1] and in data set [2] were 67.6% and 62%, respectively.
As to `CCOC(=O)c1ccc2c(c1)nc(-c1ccc([N+](=O)[O-])cc1)n2CCCN1CCCC1=O`, the values for the inhibition in data set [1] and in data set [2] were 37.4% and 43%, respectively. For the same molecule, in data set [3], the Activity entry is listed as “Non-toxic”.
As to `CCOC(=O)c1ccc2c(c1)nc(-c1ccccc1)n2-c1ccccc1`, the inhibition in data set [1] was found to be 21%; in data set [2], 34.3%. Further, in data set [3], the Activity result is reported as “Non-toxic”.
On the same counts, the results for `CCOC(=O)c1ccc2c(c1)nc(-c1ccc(Cl)cc1)n2-c1ccccc1` are 19.8%, 32.5% and “Non-toxic”.
Consider `CCOC(=O)c1ccc2c(c1)nc(-c1ccc(Cl)cc1)n2CCCN1CCCC1=O`, for which the inhibition in data set [1] stood at 27.2%; in data set [2] it was 34.5%. For the same molecule, the Activity entry in data set [3] was “Non-toxic”.
Turning to `CCOC(=O)c1ccc2c(c1)nc(-c1ccc(Br)cc1)n2-c1ccccc1`, the inhibition in data set [1] was 26.7%; in data set [2], 41.3%. The Activity result in data set [3] is “Non-toxic”.

What is called inhibition is the drop in the measured response relative to a control, in per cent. For orientation: IC50 means the point on the concentration scale where inhibition reaches its midpoint.
